Experimental findings from EPA's ToxValDB 9.5 are described below.

The test system of the data set is Rattus norvegicus. Conditions: oral.
The mark [1] stands for this setting: short-term, duration: 28 days, gavage, M/F, CD(SD)ICS BR, Clinical Observation: Fur-staining Hypoactivity(one animal)Hunched posture(one animal)Weight loss(one animal)Pallor(one animal) + Urinalysis….
Setting [2] is: short-term, duration: 28 days, gavage, F, Sprague-Dawley, Clinical Observation: Soiled perigenital fur + Body Weight Changes: Gain decrease + Urinalysis: Pale yellow or yellow/slightly brownish + ….
Where [3] appears, read: short-term, duration: 28 days, gavage, M, Sprague-Dawley, Clinical Observation: Soiled perigenital fur + Body Weight Changes: Gain decrease + Urinalysis: Pale yellow or yellow/slightly brownish + ….
The mark [4] stands for this setting: short-term, duration: 28 days, gavage, F, Sprague-Dawley, Clinical Observation: Piloerection + Urinalysis: pH decrease, K decrease + Relative Organ Weight: Spleen increase.
Where [5] appears, read: short-term, duration: 28 days, gavage, M, Sprague-Dawley, Clinical Observation: Piloerection + Urinalysis: pH decrease, K decrease + Relative Organ Weight: Spleen increase.
[6] abbreviates: short-term, duration: 28 days, gavage, F, Sprague-Dawley, Blood Chemistry: Glu decrease, ChE increase, BUN increase + Absolute Organ Weight: Thyroid increase(trend) + Relative Organ Weight: Thyroid ….
Where [7] appears, read: short-term, duration: 28 days, gavage, M, Sprague-Dawley, Blood Chemistry: Glu decrease, ChE increase, BUN increase + Absolute Organ Weight: Thyroid increase(trend) + Relative Organ Weight: Thyroid ….
Setting [8] is: subchronic, gavage, M, Sprague-Dawley, Absolute Organ Weight: Seminal vesicle increase, Prostate increase + Relative Organ Weight: Seminal vesicle increase, Prostate increase.
Where [9] appears, read: short-term, duration: 28 days, gavage, M, Sprague-Dawley, Clinical Observation: Yellow-orange urine Soft stool DiarrheaSalivation + Body Weight Changes: decrease + Food Consumption: decrease + ….
Setting [10] is: short-term, duration: 28 days, gavage, M/F, Sprague-Dawley, Deaths + Clinical Observation: Tremor Locomotor activity decrease1000 Ptosis Prone position Lateral position Soiled peritoneal region ….
Setting [11] is: subchronic, gavage, M, Sprague-Dawley, Clinical Observation: Salivation + Urinalysis: Volume increase, Tubular epithelial cell + Blood Chemistry: PL increasegamma-GTP increase, TP….
[12] abbreviates: subchronic, gavage, M, Sprague-Dawley, Deaths + Clinical Observation: Diarrhea SalivationSoft feces Decreased locomotor activity BradypneaIncomplete eyelid opening AnorexiaSoiled ….

Counter-ions that a name gives are not always drawn. Bounds are passed on as bounds.

On to `COc1c(Cl)c(Cl)c(Cl)c(Cl)c1Cl` [Pentachloroanisole], for which the NOEL (subchronic, duration: 13 weeks, gavage, M/F, Fischer 344, Deaths + Clinical Observation: Labored respiration + Body Weight Changes: decrease + Blood Chemistry: Ch E decrease + Absolute Organ Weight…) is below 40 mg/kg-day.

With `N#[N+]c1ccc2c(S(=O)(=O)[O-])cccc2c1[O-].[Na+]`, the NOEL (subchronic, gavage, M, Sprague-Dawley, Clinical Observation: Loose stool Mucous stool Soiled perineal region Brownish urine + Body Weight Changes: decrease(trend) + Food …) was below 40 mg/kg-day.

As to `CC(=O)C=Cc1ccccc1` [Methyl styryl ketone], the NOEL (short-term, duration: 28 days, gavage, M/F, Sprague-Dawley, Functional Observational Battery: Salivation Rearing decrease + Urinalysis: KET increase + Blood Chemistry: T-Cho increase + Absolute Organ …) was found to be 60 mg/kg-day.

Take `Cc1cc(S(=O)(=O)[O-])c(N)cc1Cl.[Na+]`: for the setting “subchronic, gavage, M, Sprague-Dawley, Food Consumption: increase + Urinalysis: pH decrease + Absolute Organ Weight: Kidney increase + Relative Organ Weight: Kidney increase”, the NOEL was 300 mg/kg-day.

With `Clc1ccc(Cl)nn1` [Pyridazine, 3,6-dichloro-], the NOEL (short-term, duration: 28 days, gavage, F, Sprague-Dawley, Body Weight Changes: decrease, Weight gain decrease + Food Consumption: decrease + Urinalysis: BIL increase + Blood Chemistry: TP increase, …) was 10 mg/kg-day.

Consider `O=[N+]([O-])c1ccc(Nc2ccc(Nc3ccccc3)c(S(=O)(=O)[O-])c2)c([N+](=O)[O-])c1.[Na+]` [C.I. Acid Orange 3], for which, where the note is “subchronic, duration: 13 weeks, gavage, M/F, Fischer 344, Deaths + Body Weight Changes: decrease + Histopathology: Kidney-Nephrosis Kidney-Suppurative inflammation Kidney/Renal papilla - Necrosis …”, the NOEL worked out at 750 mg/kg-day.

`CCCCCl` [1-Chlorobutane]: the NOEL (subchronic, duration: 13 weeks, gavage, M/F, Fischer 344, Deaths + Clinical Observation: Convulsion + Body Weight Changes: decrease + Histopathology: Spleen-Extramedullary hematopoiesis) was found to be 60 mg/kg-day.

On to `C=CC(C)(O)CCCC(C)CCCC(C)CCCC(C)C` (configuration not stated) [Isophytol], for which, under setting [1], the NOAEL turned out to be 500 mg/kg-day and the NOEL was 250 mg/kg-day.

With `Cc1ccc(Nc2ccc(C)cc2)cc1` [4,4'-Dimethyldiphenylamine], for the setting “short-term, duration: 28 days, gavage, M/F, Clinical Observation: Salivation + Blood Chemistry: GOT increase, GPT increase, gamma-GTP increase, T-CHO increase, TG increase, IP …”, the NOEL was 30 mg/kg-day.

Take `COc1ccc([N+](=O)[O-])cc1N=Nc1c(O)c(C(=O)Nc2cccc([N+](=O)[O-])c2)cc2ccccc12` [C.I. Pigment Red 23]: for the setting “subchronic, duration: 13 weeks, diet, M/F, Fischer 344, Hematology: Hct decrease, Hgb decrease, RBC decrease + Blood Chemistry: LDH increase + Absolute Organ Weight: Liver + Relative Organ Weight…”, the NOEL is below 288 mg/kg-day.

On to `Oc1cccc2cccnc12` [8-Hydroxyquinoline], for which, for the setting “subchronic, gavage, M, Sprague-Dawley, Clinical Observation: Salivation + Functional Observational Battery: Salivation + Body Weight Changes: Body weight gain decrease(tendency)…”, the NOEL amounted to 100 mg/kg-day.

`CCC(C)(C)c1ccccc1` [tert-Pentylbenzene]: under setting [2], the LOEL came out at 1000 mg/kg-day and the NOEL was 300 mg/kg-day. Under setting [3], the LOEL stood at 100 mg/kg-day and the NOEL is below 100 mg/kg-day.

As for `N#CC(Cl)(Cl)Cl` [Trichloroacetonitrile], for the setting “short-term, duration: 28 days, gavage, M/F, Clinical Observation: Salivation Locomotor activity decrease, Bradypnea Ptosis Flushing of auricle Staggering gait + Body Weight Changes: …”, the NOEL is 40 mg/kg-day.

In the case of `O=C(O)c1cccc([N+](=O)[O-])c1C(=O)O` [3-Nitrophthalic acid], under setting [4], the NOAEL was 500 mg/kg-day and the NOEL came out at 500 mg/kg-day. Under setting [5], the LOEL is 500 mg/kg-day, the no-observed-adverse-effect level (NOAEL) was determined as 500 mg/kg-day and the NOEL came out at 100 mg/kg-day.

Take `C1C2CC3CC1CC(C2)C3` [Adamantane]: under setting [6], the LOEL came out at 1000 mg/kg-day and the NOEL came to 200 mg/kg-day. Also, under setting [7], the LOEL came out at 40 mg/kg-day and the NOEL was below 40 mg/kg-day.

On to `CC(C)(C)c1cc(-n2nc3ccc(Cl)cc3n2)c(O)c(C(C)(C)C)c1`, for which, under “subchronic, duration: 42 days, gavage, M, CD(SD), Hematology: RBC decrease, NEUT increase, APTT decrease + Blood Chemistry: ALB increase, A/G increase, ALP increase, T-BIL decreasea2-GLOB …”, the NOAEL stood at 2.5 mg/kg-day.

Regarding `NS(=O)(=O)c1cc(C(=O)O)c(NCc2ccco2)cc1Cl` [Furosemide], the NOEL (subchronic, duration: 13 weeks, diet, M/F, Fischer 344, Deaths + Clinical Observation: Diuresis Rough fur + Body Weight Changes: decrease + Food Consumption: decrease + Relative Organ Weight: …) is below 60 mg/kg-day.

Take `CCCCCCOCCOCCO` [2-[2-(Hexyloxy)ethoxy]ethanol]: for the setting “subchronic, duration: 53 days, diet, M, SD(CD), Body Weight Changes: Mean body weight decrease + Food Consumption: decrease + Urinalysis: pH decrease + Relative Organ Weight: Liver …”, the no observed adverse effect level (NOAEL) is 300 mg/kg-day.

Take `ClCc1ccc(-c2ccc(CCl)cc2)cc1` [4,4'-Bis(chloromethyl)-1,1'-biphenyl]: the NOEL (subchronic, gavage, Sprague-Dawley) was 1000 mg/kg-day.

Turning to `CC/C=C\CCOC(C)=O` [(3Z)-3-Hexenyl acetate], under setting [8], the NOAEL amounted to 1000 mg/kg-day and the NOEL turned out to be 300 mg/kg-day.

On to `Nc1cc([N+](=O)[O-])ccc1O` [2-Amino-4-nitrophenol], for which, under setting [9], the NOAEL was below 150 mg/kg-day and the NOEL was below 150 mg/kg-day. Besides, for the setting “subchronic, duration: 13 weeks, gavage, M/F, Fischer 344, Deaths + Body Weight Changes: decrease + Absolute Organ Weight: Liver increase + Relative Organ Weight: Liver increase + Histopathology: …”, the NOEL is 125 mg/kg-day.

As to `CC(I)C1OCC(CO)O1` (configuration not stated) [Iodinated glycerol], the NOEL (subchronic, duration: 13 weeks, gavage, M/F, Fischer 344, Deaths + Body Weight Changes: decrease + Histopathology: Kidney-Tubular cell regeneration Kidney-Calcification) stood at 250 mg/kg-day.

Regarding `O.O.[Ba+2].[Cl-].[Cl-]` [Barium chloride dihydrate], the NOEL came to 10 mg/kg-day (subchronic, duration: 13 weeks, water, F, Fischer 344, Deaths + Body Weight Changes: decrease + Water Consumption: decrease + Blood Chemistry: Pi increase + Absolute Organ Weight: Kidney increase…) and 19 mg/kg-day (subchronic, duration: 13 weeks, water, M/F, Fischer 344, Deaths + Body Weight Changes: decrease + Water Consumption: decrease + Blood Chemistry: Pi increase + Absolute Organ Weight: Kidney increase…).

On to `COCCC(=O)OC` [Methyl 3-methoxypropionate], for which the NOEL (subchronic, duration: 42 days, gavage, M, Sprague-Dawley, Clinical Observation: Salivation + Food Consumption: decrease + Urinalysis: Volume increasep H decrease + Hematology: Mono increase + Blood …) was 62.5 mg/kg-day.

`Cc1cc(O)ccc1Cl` [4-Chloro-3-methylphenol]: under setting [10], the lowest-observed-adverse-effect level (LOAEL) was found to be 250 mg/kg-day, the LOEL worked out at 250 mg/kg-day, the NOAEL is 60 mg/kg-day and the NOEL amounted to 60 mg/kg-day.

`Cl.Cl.NCCNCCNCCN` [Trientine hydrochloride] yielded an NOAEL (chronic, duration: 92 days, drinking water, F, Fischer 344, Histopathology: Uterus: Increased prevalence of dilatation) of 669 mg/kg-day.

Turning to `CSCCC=O` [3-(Methylthio)propanal], under “short-term, duration: 28 days, gavage, M/F, Wistar, Body Weight Changes: Mean body weight decrease, Weight gain decrease + Hematology: RBC decrease, HGB decrease + Blood Chemistry: T-Bil …”, the no-observed-adverse-effect level (NOAEL) amounted to 104 mg/kg-day.

As to `COc1cc(N)ccc1NC(=O)c1ccc(N)cc1` [4-Amino-N-(4-amino-2-methoxyphenyl)benzamide], for the setting “short-term, duration: 28 days, gavage, M/F, Deaths + Clinical Observation: Locomotor activity increase, Tremor (temporary)Loss of righting reflex Motor ataxia Lethargy (severe) + Blood…”, the NOEL worked out at 10 mg/kg-day.

For the compound `O[Si](O)(C1CCCC1)C1CCCC1` [Dicyclopentylsilanediol], the NOEL (subchronic, duration: 90 days, gavage, M, Sprague-Dawley, Clinical Observation: Ataxic gait SalivationDecreased locomotor activity + Blood Chemistry: TG decrease + Relative Organ Weight: Liver …) worked out at 40 mg/kg-day.

On to `ClC(Cl)C(Cl)Cl` [1,1,2,2-Tetrachloroethane], for which the NOEL was 10.1 mg/kg-day (subchronic, diet, F, Fischer 344, Clinical Observation: Thinness Pallor + Body Weight Changes: decrease + Food Consumption: decrease + Hematology: Manual Hct decrease, Plt …); below 25.7 mg/kg-day (subchronic, diet, M/F, Fischer 344, Clinical Observation: Thinness Pallor + Body Weight Changes: decrease + Food Consumption: decrease + Hematology: Manual Hct decrease, Plt …); 16.6 mg/kg-day (subchronic, diet, M, Fischer 344, Clinical Observation: Thinness Pallor + Body Weight Changes: decrease + Food Consumption: decrease + Hematology: Manual Hct decrease, Plt …).

Turning to `Cc1cc(O)c(C)c(C)c1O` [2,3,5-Trimethylhydroquinone], the NOEL (subchronic, gavage, M, Sprague-Dawley, Deaths + Clinical Observation: Salivation Locomotor activity decrease, Irregular respiration + Body Weight Changes: decrease + Hematology: …) is below 10 mg/kg-day.

With `CCCCCCCC1CCCC1=O` (configuration not stated) [2-Heptylcyclopentanone], under setting [11], the no observed adverse effect level (NOAEL) turned out to be 200 mg/kg-day and the NOEL turned out to be 50 mg/kg-day.

With `CCCCCOC(=O)c1c(Cl)c(Cl)cc(Cl)c1OC(=O)C(=O)Oc1c(Cl)cc(Cl)c(Cl)c1C(=O)OCCCCC` [Bis(2,4,5-trichloro-6-carbopentoxyphenyl) oxalate], where the note is “short-term, duration: 28 days, gavage, M/F, Deaths + Clinical Observation: Salivation + Hematology: PT increase, APTT increase + Blood Chemistry: TP increase, ALB increase, TG …”, the NOEL was below 8 mg/kg-day.

With `CCc1cc(Cc2cc(CC)cc(C(C)(C)C)c2O)c(O)c(C(C)(C)C)c1` [2,2'-Methylenebis(ethyl-6-tert-butylphenol)], under setting [12], the no-observed-adverse-effect level (NOAEL) is 30 mg/kg-day and the NOEL was below 30 mg/kg-day.

`NS(=O)(=O)Cc1noc2ccccc12` [Zonisamide]: the NOAEL (short-term, duration: 28 days, gavage, M/F, Sprague-Dawley, Deaths + Clinical Observation: Locomotor activity decrease, Ataxic gait Hypotonia, Abdominal region + Body Weight Changes: Body weight gain …) worked out at 20 mg/kg-day.
